Measured values published in the Kinase Knowledgebase extract (Sharma et al. 2016).
pIC50: −log10 of the molar value.

Molecular target: MAPK14;MAPK11;MAPK12 (human) (UniProt Q16539)
Assay: Inhibition of p38 Kinase Activity

| SMILES | pIC50 |
| --- | --- |
| CNC(=O)c1ccc(C)c(Nc2nc(O[C@H]3CCNC3)nc(N(C)CC(C)(C)C)n2)c1 | > 6.00 |
| C=CCN1CC[C@H](Nc2nc(Nc3cc(C(=O)NCC)ccc3C)nc(N(C)CC3CCCC3)n2)C1 | > 6.00 |
| CCNC(=O)c1ccc(C)c(Nc2nc(N[C@H]3CCNC3)nc(N(C)CC(C)C)n2)c1 | > 6.00 |
| CCONC(=O)c1ccc(C)c(Nc2nc(NC3CCS(=O)(=O)C3)nc(N(C)CC(C)(C)C)n2)c1 (stereo unspecified) | > 6.00 |
| CONC(=O)c1ccc(C)c(Nc2nc(NCCN3CCOCC3)nc(N(C)CC(C)(C)C)n2)c1 | > 6.00 |
| Cc1ccc(C(N)=O)cc1Nc1nc(N[C@H]2CCNC2)nc(N(C)CC(C)C(F)(F)F)n1 (stereo partly specified) | > 6.00 |
| Cc1ccc(C(N)=O)cc1Nc1nc(N[C@@H]2CCNC2)nc(OC[C@@H]2CC[C@H]3C[C@H]2C3(C)C)n1 | > 6.00 |
| Cc1ccc(C(N)=O)cc1Nc1nc(NC[C@@H]2CC[C@H]3C[C@H]2C3(C)C)nc(N[C@H]2CCNC2)n1 | > 6.00 |
| CONC(=O)c1ccc(C)c(Nc2nc(NCCCN3CCCC3)nc(N(C)CC(C)(C)C)n2)c1 | > 6.00 |
| Cc1ccc(C(N)=O)cc1Nc1nc(NC[C@@H]2CC[C@H]3C[C@@H]2C3(C)C)nc(N[C@@H]2CCNC2)n1 | > 6.00 |
| Cc1ccc(C(N)=O)cc1Nc1nc(NCCC(C)(C)C)nc(N[C@@H]2CCNC2)n1 | > 6.00 |
| CCNC(=O)c1ccc(C)c(Nc2nc(N[C@H]3CCNC3)nc(N(C)CC(C)(C)C)n2)c1 | > 6.00 |
| Cc1ccc(C(N)=O)cc1Nc1nc(NC2CCCC2)nc(N[C@@H]2CCNC2)n1 | > 6.00 |
| CC1(C)[C@@H]2CC[C@@H](CNc3nc(Nc4cc(C(N)=O)ccc4Cl)nc(NC4CCNC4)n3)[C@H]1C2 (stereo partly specified) | > 6.00 |
| CONC(=O)c1ccc(F)c(Sc2nc(N(C)CC(C)(C)C)nc(N3CCCN(C)CC3)n2)c1 | > 4.52 |
| Cc1ccc(C(N)=O)cc1Nc1nc(O)nc(NC2CCCC2)n1 | > 6.00 |
| CCCCOc1nc(Nc2cc(C(N)=O)ccc2C)nc(NC2CCCC2)n1 | > 6.00 |
| Cc1ccc(C(N)=O)cc1Nc1nc(N[C@@H]2CCNC2)nc(N(C)CC2(C)CCCC2)n1 | > 6.00 |
| Cc1ccc(C(N)=O)cc1Nc1nc(NCC2CCC3CC2C3(C)C)nc(NC2CCNC2)n1 (stereo unspecified) | > 6.00 |
| CCCNC(=O)c1ccc(C)c(Nc2nc(O[C@H]3CCNC3)nc(N(C)CC(C)(C)C)n2)c1 | > 6.00 |

| SMILES | pIC50 |
| --- | --- |
| Cc1ccc(C(N)=O)cc1Nc1cc(N(C)CC(C)C)nc(N[C@H]2CCNC2)n1 | > 6.00 |
| Cc1ccc(C(N)=O)cc1Nc1nc(NC(C)C2CCCCC2)nc(N[C@H]2CCNC2)n1 (stereo partly specified) | > 6.00 |
| CCCN1CC[C@@H](Nc2nc(Nc3cc(C(N)=O)ccc3C)nc(N(C)CC(C)C)n2)C1 | > 6.00 |
| CCN1C[C@@H](Nc2nc(Nc3cc(C(N)=O)ccc3C)nc(N(C)CC(C)(C)C)n2)C[C@H]1C | > 6.00 |
| Cc1cc2c(cc1Nc1nc(N[C@H]3CCNC3)nc(N(C)CC(C)(C)C)n1)C(=O)NC2 | > 6.00 |
| CONC(=O)c1ccc(C)c(Nc2nc(N[C@H]3CCNC3)nc(N(C)CC(C)(C)C)n2)c1 | > 6.00 |
| CONC(=O)c1ccc(C)c(Sc2nc(N(C)CC(C)(C)C)nc(N3CCCN(C)CC3)n2)c1 | > 4.52 |
| Cc1ccc(C(N)=O)cc1Nc1nc(NCC2CC3CCC2C3)nc(N[C@H]2CCNC2)n1 (stereo partly specified) | > 6.00 |
| Cc1ccc(C(N)=O)cc1Nc1nc(NCC2CCC2)nc(N[C@H]2CCNC2)n1 | > 6.00 |
| Cc1ccc(C(N)=O)cc1Nc1nc(NC2CCN(C)C2)nc(N(C)CC(C)C)n1 (stereo unspecified) | > 6.00 |
| Cc1ccc(C(N)=O)cc1Nc1nc(N[C@H]2CCNC2)cc(N(C)CC(C)C)n1 | > 6.00 |
| Cc1ccc2c(c1Nc1nc(N[C@H]3CCNC3)nc(N(C)CC(C)(C)C)n1)CNC2=O | > 6.00 |
| Cc1ccc(C(N)=O)cc1Nc1nc(N[C@H]2CONC2=O)nc(N(C)CC(C)(C)C)n1 | > 6.00 |
| Cc1ccc(C(N)=O)cc1Nc1nc(NC2CCNC2)nc(N(C)CC(C)(C)C)n1 (stereo unspecified) | > 6.00 |
| Cc1ccc(CNC(C)C)cc1Nc1nc(N[C@H]2CCNC2)nc(N(C)CC(C)(C)C)n1 | > 6.00 |
| CNC(=O)c1ccc(C)c(Oc2nc(N(C)CC(C)(C)C)nc(N3CCCN(C)CC3)n2)c1 | > 4.52 |
| COCCC(=O)N1CC[C@@H](Nc2nc(Nc3cc(C(N)=O)ccc3C)nc(N(C)CC(C)C)n2)C1 | > 6.00 |
| CCONC(=O)c1ccc(C)c(Nc2cc(N(C)CC(C)(C)C)nc(N3CCCN(C)CC3)n2)c1 | > 6.00 |
| Cc1ccc(C(=O)NCCC(C)C)cc1Nc1nc(N[C@H]2CCNC2)nc(N(C)CC(C)(C)C)n1 | > 6.00 |
| Cc1ccc(C(N)=O)cc1Nc1nc(N[C@H]2CN[C@H](C)C2)nc(N(C)CC(C)(C)C)n1 | > 6.00 |

More lines, now with the values ahead:

| pIC50 | SMILES |
| --- | --- |
| > 4.52 | Cc1ccc(C(N)=O)cc1Oc1nc(NCc2ccccn2)nc(N(C)CC(C)(C)C)n1 |
| > 4.52 | CONC(=O)c1ccc(C)c(Oc2nc(NCc3ccccn3)nc(N(C)CC(C)(C)C)n2)c1 |
| > 5.00 | CC(CCCCCCNc1nc(NCC(C)c2ccccc2)nc(Nc2ccc3ncoc3c2)n1)C(N)=O (stereo unspecified) |
| > 6.00 | Cc1ccc(C(N)=O)cc1Nc1nc(N[C@H]2CCN(Cc3cccc(Cl)c3)C2)nc(N(C)CC(C)C)n1 |
| > 6.00 | Cc1ccc(C(N)=O)cc1Nc1nc(NCC(N)=O)nc(NCC(C)c2ccccc2)n1 (stereo unspecified) |
| > 5.00 | CNc1nc(NCc2ccc(F)cc2F)nc(Nc2ccc3ncsc3c2)n1 |
| > 6.00 | Cc1ccc(C(=O)Nc2cccc(N(C)C)c2)cc1Nc1nc(N[C@H]2CCNC2)nc(N(C)CC(C)(C)C)n1 |
| > 5.00 | Nc1nc(NCCc2ccccc2)nc(Nc2ccc(S(=O)(=O)N(C=O)c3ncccn3)cc2)n1 |
| > 5.00 | C[C@H](CNc1nc(Cl)nc(Nc2ccc3ncsc3c2)n1)c1ccccc1 |
| > 6.00 | Cc1ccc(C(=O)Nc2ccccc2)cc1Nc1nc(N[C@H]2CCNC2)nc(N(C)CC(C)(C)C)n1 |
| > 5.00 | COCC(=O)N1CC2CC1CN2c1nc(NCC(C)c2ccccc2)nc(Nc2ccc3ncsc3c2)n1 (stereo unspecified) |
| > 6.00 | CONC(=O)c1ccc(C)c(Nc2nc(NCc3cccc(F)c3)nc(N(C)CC(C)(C)C)n2)c1 |
| > 5.00 | CC(C)C(=O)N(C)CCCN(C)c1nc(NCC(C)c2ccccc2)nc(Nc2ccc3ncsc3c2)n1 (stereo unspecified) |
| > 6.00 | CCNC(=O)c1ccc(C)c(Nc2nc(NC[C@H]3CCCN3)nc(N(C)CC(C)C)n2)c1 |
| > 6.00 | Cc1ccc(C(N)=O)cc1Nc1nc(N[C@H]2CCN(Cc3ccccc3)C2)nc(N(C)CC(C)(C)C)n1 |
| > 5.00 | Clc1cccc(Nc2nc(Cl)nc(Nc3ccc4ncsc4c3)n2)c1 |
| > 6.00 | Cc1cccc(CN2CC[C@H](Nc3nc(Nc4cc(C(N)=O)ccc4C)nc(N(C)CC(C)C)n3)C2)n1 |
| > 5.00 | Cc1ccccc1NC(=S)N1CCN(c2nc(NCC(C)c3ccccc3)nc(Nc3ccc4ncsc4c3)n2)CC1 (stereo unspecified) |
| > 5.00 | CC(CNc1nc(Nc2ccc3ncsc3c2)nc(N2CC3CC2CN3S(=O)(=O)N(C)C)n1)c1ccccc1 (stereo unspecified) |
| > 6.00 | CONC(=O)c1ccc(C)c(Nc2nc(NCc3ccc(Cl)c(Cl)c3)nc(N(C)CC(C)(C)C)n2)c1 |
| > 6.00 | Cc1ccc(CN2CC[C@H](Nc3nc(Nc4cc(C(N)=O)ccc4C)nc(N(C)CC(C)C)n3)C2)cc1 |
| > 6.00 | Cc1ccccc1NC(=O)c1ccc(C)c(Nc2nc(N[C@H]3CCNC3)nc(N(C)CC(C)(C)C)n2)c1 |
| > 6.00 | Cc1ccc(C(=O)Nc2ccccn2)cc1Nc1nc(N[C@H]2CCNC2)nc(N(C)CC(C)C)n1 |
| > 5.00 | CC(CNc1nc(Nc2ccc3ncsc3c2)nc(N2CC3CC2CN3C(=O)c2ccco2)n1)c1ccccc1 (stereo unspecified) |
| > 5.00 | CC(CNc1nc(Cl)nc(Nc2ccc3ncsc3c2)n1)c1ccccc1 (stereo unspecified) |
| > 6.00 | CONC(=O)c1ccc(C)c(Nc2nc(N(C)CC(C)(C)C)nc(-n3ccnc3)n2)c1 |

| pIC50 | SMILES |
| --- | --- |
| > 6.00 | Cc1ccc(CN2CC[C@H](Nc3nc(Nc4cc(C(N)=O)ccc4C)nc(N(C)CC(C)C)n3)C2)c(C)c1 |
| > 6.00 | Cc1cccc(CN2CC[C@H](Nc3nc(Nc4cc(C(N)=O)ccc4C)nc(N(C)CC(C)C)n3)C2)c1 |
| > 5.00 | CC(=O)N1CCN(c2nc(Nc3ccc4ncsc4c3)nc(N(C)CC3CCC4CC3C4(C)C)n2)CC1 (stereo unspecified) |
| > 5.00 | CC(=O)N(C)CCCN(C)c1nc(NCC(C)c2ccccc2)nc(Nc2ccc3ncsc3c2)n1 (stereo unspecified) |
| > 5.00 | CNCCN(C)c1nc(NCC2CCC3CC2C3(C)C)nc(Nc2ccc3ncsc3c2)n1 (stereo unspecified) |
| > 6.00 | Cc1ccc(C(N)=O)cc1Nc1nc(N[C@@H]2CCNC2)nc(-c2cccc(Cl)c2)n1 |
| > 5.00 | CNC(=O)CCC(=O)N1CCN(c2nc(NCC3CCC4CC3C4(C)C)nc(Nc3ccc4ncsc4c3)n2)CC1 (stereo unspecified) |
| > 5.00 | Cn1ccc2cc(Nc3nc(Cl)nc(NC[C@@H]4CC[C@H]5C[C@@H]4C5(C)C)n3)ccc21 |
| > 5.00 | CCOCNc1nc(NCC(C)c2ccccc2)nc(Nc2ccc3ncsc3c2)n1 (stereo unspecified) |
| > 6.00 | CONC(=O)c1ccc(C)c(Nc2nc(NCCNc3ccccc3)nc(N(C)CC(C)(C)C)n2)c1 |
| > 6.00 | CNC(=O)c1ccc(C)c(Nc2nc(NC[C@H]3CCCN3)nc(N(C)CC(C)(C)C)n2)c1 |
| > 5.00 | CN(CCN(C)c1nc(NCC2CCC3CC2C3(C)C)nc(Nc2ccc3ncccc3c2)n1)C(=O)CCC(=O)O (stereo unspecified) |
| > 5.00 | CNCCN(C)c1nc(NC[C@@H](C)c2ccccc2)nc(Nc2ccc3ncsc3c2)n1 |
| > 6.00 | Cc1ccc(C(N)=O)cc1Nc1nc(NC2CCN(Cc3ccccc3)C2)nc(N(C)CC(C)C)n1 (stereo unspecified) |
| > 5.00 | c1nc2ccc(Nc3nc(N4CCNCC4)nc(N4CCC5CCCCC5C4)n3)cc2s1 (stereo unspecified) |
| > 5.00 | COC(=O)CC(CNc1nc(Cl)nc(Nc2ccc3ncsc3c2)n1)c1ccc(Cl)cc1 (stereo unspecified) |
| > 6.00 | Cc1ccc(C(N)=O)cc1Nc1nc(NC2CCN(Cc3ccc(O)cc3)C2)nc(N(C)CC(C)C)n1 (stereo unspecified) |
| > 5.00 | CC(CNc1nc(Nc2ccc3ncsc3c2)nc(N2CCCCC2)n1)c1ccccc1 (stereo unspecified) |
| > 5.00 | Clc1nc(Nc2ccc3ncsc3c2)nc(N[C@H]2C[C@H]2c2ccccc2)n1 |
| > 5.00 | CCNC(=O)N1CCN(c2nc(NC[C@@H]3CC[C@H]4C[C@@H]3C4(C)C)nc(Nc3ccc4ncsc4c3)n2)CC1 |
| > 5.00 | CC(CNc1nc(Nc2ccc3ncsc3c2)nc(N2CCN(C(=O)c3ccco3)CC2)n1)c1ccccc1 (stereo unspecified) |
| > 5.00 | COCC(=O)N(C)CCCN(C)c1nc(NCC(C)c2ccccc2)nc(Nc2ccc3ncsc3c2)n1 (stereo unspecified) |
| > 5.00 | Cc1c(Nc2nc(NCC(C)c3ccccc3)nc(N3CCNCC3)n2)ccc2ncsc12 (stereo unspecified) |
| > 5.00 | CC1(C)C2CCC(CNc3nc(Nc4ccc5ncoc5c4)nc(N4CCN(C(=O)CCC(=O)O)CC4)n3)C1C2 (stereo unspecified) |
| > 6.00 | Cc1ccc(C(=O)NCCc2ccccc2)cc1Nc1nc(N[C@H]2CCNC2)nc(N(C)CC(C)(C)C)n1 |
